For 18 molecules, IC50 results are on record in US7491794B2, “Macrocyclic compounds as inhibitors of viral replication” (Intermune, Inc., priority 2003, dated 2009).

The target in one test is T1, NS3-NS4 protease (Hepatitis C virus genotype 1a, UniProt P27958).
T1 construct: Recombinant E. coli or Baculovirus full-length NS3 was diluted to 3.33 μM with assay buffer; made in house; host or cells: E. coli or baculovirus (BV) system
T1 sequence (P27958 1027-1657): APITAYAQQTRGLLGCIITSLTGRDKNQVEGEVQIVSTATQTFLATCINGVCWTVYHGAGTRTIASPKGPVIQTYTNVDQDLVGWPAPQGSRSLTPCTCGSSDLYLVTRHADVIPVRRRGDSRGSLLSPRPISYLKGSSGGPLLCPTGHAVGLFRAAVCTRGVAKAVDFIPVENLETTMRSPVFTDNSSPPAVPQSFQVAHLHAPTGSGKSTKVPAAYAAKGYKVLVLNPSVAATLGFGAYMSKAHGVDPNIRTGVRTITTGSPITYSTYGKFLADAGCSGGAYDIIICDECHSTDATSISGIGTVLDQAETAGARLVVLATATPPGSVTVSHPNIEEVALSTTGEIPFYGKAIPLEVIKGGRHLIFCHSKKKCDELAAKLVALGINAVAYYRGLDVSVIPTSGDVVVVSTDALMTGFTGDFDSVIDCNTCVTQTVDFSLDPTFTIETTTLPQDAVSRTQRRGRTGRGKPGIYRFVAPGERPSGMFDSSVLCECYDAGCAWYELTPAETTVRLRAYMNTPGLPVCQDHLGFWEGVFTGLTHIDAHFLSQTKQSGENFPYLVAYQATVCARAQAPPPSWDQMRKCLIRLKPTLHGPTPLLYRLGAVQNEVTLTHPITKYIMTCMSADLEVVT
Briefly: NS3-NS4 protease assay / NS3 inhibition assay, Section C. Type of test: biochemical. As to conditions: read-out: NS3-NS4 IC50. Here is the method: NS3 complex formation with NS4A-2.
Recombinant E. coli or Baculovirus full-length NS3 was diluted to 3.33 μM with assay buffer and transfered material to an eppendorf tube and place in water bath in 4° C. refrigerator. The appropriate amount of NS4A-2 to 8.3 mM in assay buffer was added to equal the volume of NS3 in step 2.1.1 (conversion factor −3.8 mg/272 μL assay buffer). The material was transferred to an eppendorf tube and place in water bath in 4° C. refrigerator.
After equilibration to 4° C., equal volumes of NS3 and NS4A-2 solutions were combined in an eppendorf tube, mix gently with a manual pipettor, and incubate mixture for 15 minutes in the 4° C. water bath. Final concentrations in the mixture are […] NS3, 4.15 mM NS4A-2 (2485-fold molar excess NS4A-2).
After 15 minutes at 4° C., the NS3/NS4A-2 eppendorf tube was removed and place it in a room temperature water bath for 10 minutes. NS3/NS4A-2 was alliquoted at appropriate volumes and store at −80° C. (E. coli NS3 run at 2 nM in assay, aliquot at 25 μL. BV NS3 run at 3 nM in assay, aliquot at 30 μL).
Step 2.2.5. Sample compounds were dissolved to 10 mM in DMSO then diluted to 2.5 mM (1:4) in DMSO.
Step 2.2.6. The E. coli. NS3/NS4A-2 was diluted to 4 nM NS3 (1:417.5 of […] stock−18 μL 1.67 μM stock+7497 μL assay buffer). The BV NS3/NS4A-2 was diluted to 6 nM NS3 (1:278.3 of 1.67 μM stock−24 μL 1.67 μM stock+6655 μL assay buffer).
Step 2.2.7. Using the manual multichannel pipettor, and being careful not to introduce bubbles into the plate, 50 μL assay buffer were added to wells A01-H01 of a black Costar 96-well polypropylene storage plate.
Step 2.2.8. Using the manual multichannel pipettor, and being careful not to introduce bubbles into the plate, 50 μL of diluted NS3/NS4A-2 from step 2.2.6 were added to wells A02-H12 of plate in step 2.2.7.
Step 2.2.9. Using the manual multichannel pipettor, and being careful not to introduce bubbles into the plate, 25 μL of the wells in drug dilution plate in step 2.2.5 were transferred to corresponding wells in assay plate in step 2.2.8. The tips on multichannel pipettor were changed for each row of compounds transferred.
Step 2.2.10. Using the manual multichannel pipettor, and being careful not to introduce bubbles into the plate, the contents of the wells from the assay plate in step 2.2.9 were mixed by aspirating and dispensing 35 μL of the 75 μL in each well five times. The tips on the multichannel pipettor were changed for each row of wells mixed.
Step 2.2.11. The plate was covered with a polystyrene plate lid, and the plate from step 2.2.10 containing NS3 protease and sample compounds was pre-incubated 10 minutes at room temperature.
While the plate from step 2.2.11 was pre-incubating, the RETS1 substrate was diluted in a 15 mL polypropylene centrifuge tube. The RETS1 substrate was diluted to 8 μM (1:80.75 of 646 μM stock−65 μL 646 μM stock+5184 μL assay buffer).
After the plate in step 2.2.11 was done pre-incubating, and using the manual multichannel, 25 μL of substrate were added to all wells on the plate. The contents of the wells of plate were quickly mixed, as in step 2.2.10, but mixing 65 μL of the 100 μL in the wells.
The plate was read in kinetic mode on the Molecular Devices SpectraMax Gemini XS plate reader. Reader settings: Read time: 30 minutes, Interval: 36 seconds, Reads: 51, Excitation λ: 335 nm, Emission λ: 495 nm, cutoff: 475 nm, Automix: off, Calibrate: once, PMT: high, Reads/well: 6, Vmax pts: 21 or 28/51 depending on length of linearity of reaction.
IC50s were determined using a four parameter curve fit equation, and converted to Ki's using the following Km's:
(§1) where Ki=IC50/(1+[S]/Km))
Usually IC50 stands for the concentration needed to halve the response being measured. For `CC(C)(C)OC(=O)N[C@H]1CCCCC/C=C\[C@@H]2C[C@@]2(C(=O)NS(=O)(=O)N2CCNCC2)NC(=O)[C@@H]2C[C@@H](OC(=O)N3Cc4ccccc4C3)CN2C1=O` [Compound 120, (1S,4R,6S,14S,18R)-1,3-Dihydro-isoindole-2-carboxylic acid 14-tert-butoxycarbonylamino-4-(piperazine-1-sulfonyl-aminocarbonyl)-2,15-dioxo-3,16-diaza-tricyclo[14.3.0.0^4,6]nonadec-7-en-18-yl ester], the IC50 was less than 100 nM.

Turning to `CC(C)(C)OC(=O)N[C@H]1CCCCC/C=C\[C@@H]2C[C@@]2(C(=O)NS(=O)(=O)Nc2nccs2)NC(=O)[C@@H]2C[C@@H](OC(=O)N3Cc4ccccc4C3)CN2C1=O` [Compound 105, (1S,4R,6S,14S,18R)-1,3-Dihydro-isoindole-2-carboxylic acid 14-tert-butoxycarbonylamino-4-(thiazol-2-ylaminosulfonylaminocarbonyl)-2,15-dioxo-3,16-diaza-tricyclo[14.3.0.0^4,6]nonadec-7-en-18-yl ester], the IC50 is less than 100 nM.

For a further test, the target named is T1, NS3-NS4 protease. Put plainly: NS3-NS4 protease assay / NS3 inhibition assay, Section D. Type of test: biochemical.
Details: not given
The method, then:
NS3-NS4 Protease Assay NS3 complex formation with NS4A-2.
Recombinant E. coli or Baculovirus full-length NS3 was diluted to 3.33 μM with assay buffer and transferred material to an eppendorf tube and place in water bath in 4° C. refrigerator. The appropriate amount of NS4A-2 to 8.3 mM in assay buffer was added to equal the volume of NS3 in step 2.1.1 (conversion factor −3.8 mg/272 μL assay buffer). The material was transferred to an eppendorf tube and place in water bath in 4° C. refrigerator.
After equilibration to 4° C., equal volumes of NS3 and NS4A-2 solutions were combined in an eppendorf tube, mix gently with a manual pipettor, and incubate mixture for 15 minutes in the 4° C. water bath. Final concentrations in the mixture are 1.67 μM NS3, 4.15 mM NS4A-2 (2485-fold molar excess NS4A-2).
After 15 minutes at 4° C., the NS3/NS4A-2 eppendorf tube was removed and placed in a room temperature water bath for 10 minutes. NS3/NS4A-2 was alliquoted at appropriate volumes and store at −80° C. (E. coli NS3 run at 2 nM in assay, aliquot at 25 μL. BV NS3 run at 3 nM in assay, aliquot at 30 μL).
Sample compounds were dissolved to 10 mM in DMSO then diluted to 2.5 mM (1:4) in DMSO.
The E. coli. NS3/NS4A-2 was diluted to 4 nM NS3 (1:417.5 of 1.67 μM stock−18 μL 1.67 μM stock+7497 μL assay buffer).
The BV NS3/NS4A-2 was diluted to 6 nM NS3 (1:278.3 of 1.67 μM stock−24 μL 1.67 μM stock+6655 μL assay buffer).
Using the manual multichannel pipettor, careful not to introduce bubbles into the plate, add 50 μL assay buffer to wells A01-H01 of a black Costar 96-well polypropylene storage plate.
Using the manual multichannel pipettor, careful not to introduce bubbles into the plate, add 50 μL of diluted NS3/NS4A-2 from step 2.2.6 to wells A02-H12 of plate in step 2.2.7.
Using the manual multichannel pipettor, careful not to introduce bubbles into the plate, transfer 25 μL of the wells in drug dilution plate in step 2.2.5 to corresponding wells in assay plate in step 2.2.8. Change tips on multichannel pipettor for each row of compounds transferred.
Using the manual multichannel pipettor, careful not to introduce bubbles into the plate, mix the wells from the assay plate in step 2.2.9 by aspirating and dispensing 35 μL of the 75 μL in each well five times. Change tips on multichannel pipettor for each row of wells mixed.
Cover plate with a polystyrene plate lid and pre-incubate the plate from step 2.2.10 containing NS3 protease and sample compounds 10 minutes at room temperature.
While plate from step 2.2.11 is pre-incubating, dilute RETS1 substrate in a 15 mL polypropylene centrifuge tube.
Dilute RETS1 substrate to 8 μM (1:80.75 of 646 μM stock−65 μL 646 μM stock+5184 μL assay buffer).
After the plate in step is done pre-incubating, and using the manual multichannel, add 25 μL of substrate to all wells on the plate. Quickly mix the plate as in step 2.2.10, mixing 65 μL of the 100 μL in the wells.
Read the plate in kinetic mode on the Molecular Devices SpectraMax Gemini XS plate reader. Reader settings: Read time: 30 minutes, Interval: 36 seconds, Reads: 51, Excitation k: 335 nm, Emission k: 495 nm, cutoff: 475 nm, Automix: off, Calibrate: once, PMT: high, Reads/well: 6, Vmax pts: 21 or 28/51 depending on length of linearity of reaction.
IC50s are determined using a four parameter curve fit equation, and converted to Ki's using the following Km's:
as §1
`CC(C)(C)OC(=O)N[C@H]1CCCCC/C=C\[C@@H]2C[C@@]2(C(=O)NS(=O)(=O)C2CC2)NC(=O)[C@@H]2C[C@@H](NC(=O)c3ccc4ccccc4c3)CN2C1=O` [Example 27] returned a half-inhibitory concentration (IC50) of less than 100 nM.

`CC(C)(C)OC(=O)N[C@H]1CCCCC/C=C\[C@@H]2C[C@@]2(C(=O)NS(=O)(=O)C2CC2)NC(=O)[C@@H]2C[C@@H](NC(=O)c3ccc(C#N)cc3)CN2C1=O` [Example 9]: the IC50 is less than 100 nM.

`CC(C)(C)OC(=O)N[C@H]1CCCCC/C=C\[C@@H]2C[C@@]2(C(=O)NS(=O)(=O)C2CC2)NC(=O)[C@@H]2C[C@@H](NC(=O)c3ccc(F)c(F)c3)CN2C1=O` [Example 15] had an IC50 of less than 100 nM.

Take `CC(C)(C)OC(=O)N[C@H]1CCCCC/C=C\[C@@H]2C[C@@]2(C(=O)NS(=O)(=O)C2CC2)NC(=O)[C@@H]2C[C@@H](NC(=O)c3cc4cc(OC(F)(F)F)ccc4[nH]3)CN2C1=O` [Example 36]: the half-inhibitory concentration (IC50) was less than 100 nM.

`CC(C)(C)OC(=O)N[C@H]1CCCCC/C=C\[C@@H]2C[C@@]2(C(=O)NS(=O)(=O)C2CC2)NC(=O)[C@@H]2C[C@@H](NC(=O)c3sc4ccccc4c3Cl)CN2C1=O` [Example 1]: the IC50 was less than 100 nM.

Consider `CC(C)(C)OC(=O)N[C@H]1CCCCC/C=C\[C@@H]2C[C@@]2(C(=O)O)NC(=O)[C@@H]2C[C@@H](NC(=O)c3sc4ccccc4c3Cl)CN2C1=O` [Example 64], for which the IC50 was less than 1000 nM.

`CC(C)(C)OC(=O)N[C@H]1CCCCC/C=C\[C@@H]2C[C@@]2(C(=O)NS(=O)(=O)C2CC2)NC(=O)[C@@H]2C[C@@H](NC(=O)c3ccc(-c4ccccc4)cc3)CN2C1=O` [Example 19] had an IC50 of less than 100 nM.

Molecule `CC(C)(C)OC(=O)N[C@H]1CCCCC/C=C\[C@@H]2C[C@@]2(C(=O)NS(=O)(=O)C2CC2)NC(=O)[C@@H]2C[C@@H](NC(=O)c3ccc(-c4ccc(Cl)cc4)o3)CN2C1=O` [Example 22] gave a half-maximal inhibitory concentration (IC50) of less than 100 nM.

The molecule `CC(C)(C)OC(=O)N[C@H]1CCCCC/C=C\[C@@H]2C[C@@]2(C(=O)O)NC(=O)[C@@H]2C[C@@H](NC(=O)c3cc4ccccc4s3)CN2C1=O` [Example 59] yielded an IC50 of less than 10000 nM.

`CC(C)(C)OC(=O)N[C@H]1CCCCC/C=C\[C@@H]2C[C@@]2(C(=O)O)NC(=O)[C@@H]2C[C@@H](NC(=O)c3ccc4ccccc4c3)CN2C1=O` [Example 62]: the 50% inhibitory concentration (IC50) is less than 1000 nM.

`CC(C)(C)OC(=O)N[C@H]1CCCCC/C=C\[C@@H]2C[C@@]2(C(=O)NS(=O)(=O)C2CC2)NC(=O)[C@@H]2C[C@@H](NC(=O)c3cccc(C#N)c3)CN2C1=O` [Example 10] came in with an IC50 of less than 100 nM.

`COc1cccc2cc(C(=O)N[C@@H]3C[C@H]4C(=O)N[C@]5(C(=O)NS(=O)(=O)C6CC6)C[C@H]5/C=C\CCCCC[C@H](NC(=O)OC(C)(C)C)C(=O)N4C3)oc12` [Example 42]: the IC50 is less than 100 nM.

`CC(C)(C)NC(=O)N[C@H]1CCCCC/C=C\[C@@H]2C[C@@]2(C(=O)NS(=O)(=O)C2CC2)NC(=O)[C@@H]2C[C@@H](NC(=O)c3sc4cc(F)ccc4c3Cl)CN2C1=O` [Example 55] returned a concentration for half-maximal inhibition (IC50) of less than 100 nM.

The molecule `CC(C)(C)OC(=O)N[C@H]1CCCCC/C=C\[C@@H]2C[C@@]2(C(=O)NS(=O)(=O)C2CC2)NC(=O)[C@@H]2C[C@@H](NC(=O)c3c(Cl)cc(Cl)cc3Cl)CN2C1=O` [Example 5] came in with an IC50 of less than 100 nM.

For the molecule `COc1ccc(C(=O)N[C@@H]2C[C@H]3C(=O)N[C@]4(C(=O)NS(=O)(=O)C5CC5)C[C@H]4/C=C\CCCCC[C@H](NC(=O)OC(C)(C)C)C(=O)N3C2)cc1C(F)(F)F` [Example 8], the IC50 was less than 100 nM.

On to `CC(C)(C)OC(=O)N[C@H]1CCCCC/C=C\[C@@H]2C[C@@]2(C(=O)NS(=O)(=O)C2CC2)NC(=O)[C@@H]2C[C@@H](NC(=O)c3csc(-c4ccccc4)n3)CN2C1=O` [Example 24], for which the IC50 was less than 100 nM.
